Like-named read-outs stand apart in the source and are kept apart here. Residues, ends and D or L forms follow the SMILES beside them.
Assays:
Format in all cases: cell-based
Pseudomonas aeruginosa = conditions: TSB medium, 6 h
Method: (§1) Antimicrobial assays (for Examples 3 to 27) were carried out in 96-well tissue culture plates. Each well was incubated with a given microorganism (Escherichia coli, Staphylococcus epidermidis, Staphylococcus aureus, or Pseudomonas aeruginosa) suspended in LB medium (Examples 3-17), or TSB medium (Examples 18-27). Upon the addition of Magainin I or its substitution analogues, (dissolved in 1×PBS, pH 7.0) each well contained a final cell density of 1.0×10^6 colony forming units (CFU)/ml. The final peptide concentrations used were 100 μg/ml., 75.0 μg/ml, 50.0 μg/ml, 25 μg/ml, 12.5 μg/ml, 10 μg/ml, 5μg/ml, 2.5 μg/ml, and 1.25 μg/ml.
(§2) Addition of peptides to the wells was defined as time zero. At six hours, the plates were placed in a Titertek Multiskan apparatus and the O.D.620 determined. The plates as well as the initial innoculum were incubated at 37° C.
(§3) Five wells per plate contained media alone, while five others contained medium plus cells. These controls were used to eliminate the possibility of media contamination while providing a measure of uninhibited growth of the microorganisms.
(§4) The degree of peptide activity was determined by comparing the substitution analogues with uninhibited growth of the control cells over a six-hour period.

[1] = tested on: Staphylococcus epidermidis; conditions: 6 h
Method: as §1, §2, §3, §4

Escherichia coli = conditions: 6 h
Method: as §1, §2, §3, §4

Staphylococcus aureus = conditions: at 50 μg/ml peptide; LB medium; 6 h
Method: as §1, §2, §3, §4

[2] = at 10 μg/ml peptide, TSB medium
[3] = at 25 μg/ml peptide, TSB medium

CC[C@H](C)[C@H](NC(=O)CN)C(=O)NCC(=O)N[C@@H](CCCCN)C(=O)N[C@@H](CCCCN)C(=O)N[C@@H](CC(C)C)C(=O)N[C@@H](Cc1c[nH]cn1)C(=O)N[C@@H](CCCCN)C(=O)N[C@@H](CCCCN)C(=O)NCC(=O)N[C@@H](CCCCN)C(=O)N[C@@H](Cc1ccccc1)C(=O)NCC(=O)N[C@@H](CCCCN)C(=O)N[C@@H](Cc1ccccc1)C(=O)N[C@@H](CCCCN)C(=O)NCC(=O)N[C@@H](C)C(=O)N[C@H](C(=O)N[C@@H](CC(C)C)C(=O)N[C@@H](CCCCN)C(=O)N[C@@H](C)C(=O)O)[C@@H](C)CC [Example 8] (H-GIGKKLHKKGKFGKFKGAILKA-OH)
100%: % effective growth inhibition of P. aeruginosa (Pseudomonas aeruginosa; at 5 μg/ml peptide) | % effective growth inhibition of P. aeruginosa (Pseudomonas aeruginosa; at 10 μg/ml peptide) | % effective growth inhibition of P. aeruginosa (Pseudomonas aeruginosa; at 25 μg/ml peptide) | % effective growth inhibition of S. epidermidis ([1]; at 5 μg/ml peptide, TSB medium) | % effective growth inhibition of S. epidermidis [1, 2] | % effective growth inhibition of S. epidermidis [1, 3] | % effective growth inhibition of S. epidermidis ([1]; at 50 μg/ml peptide, LB medium) | % effective growth inhibition of S. epidermidis ([1]; at 75 μg/ml peptide, LB medium) | % effective growth inhibition of E. coli (Escherichia coli; at 5 μg/ml peptide, LB medium) | % effective growth inhibition of E. coli (Escherichia coli; at 5 μg/ml peptide, TSB medium) | % effective growth inhibition of E. coli (Escherichia coli; [2]) | % effective growth inhibition of E. coli (Escherichia coli; at 25 μg/ml peptide, LB medium) | % effective growth inhibition of E. coli (Escherichia coli; [3]) | % effective growth inhibition of E. coli (Escherichia coli; at 75 μg/ml peptide, LB medium) | % effective growth inhibition of E. coli (Escherichia coli; at 100 μg/ml peptide, LB medium)

GIGKFILHAAGKFGKAFVGIMKS (GIGKFLHAAGKFGKAFVGIMKS) [Magainin I, residue 19 deleted, residue 8 alanine]
100%: % effective growth inhibition of S. aureus (Staphylococcus aureus) | % effective growth inhibition of S. epidermidis ([1]; at 25 μg/ml peptide, LB medium) | % effective growth inhibition of E. coli (Escherichia coli; at 2.5 μg/ml peptide, LB medium)

From patent US5912231A, “Substitution analogues of magainin peptides” (priority 1994, dated 1999)
